Legend:
E3-STn cells = assay: E3-STn transfected murine breast tumor allograft model, tumor volume; format: in vivo, mouse; conditions: 7G9-1A8 25 mg/kg ip twice weekly 3 weeks, Paclitaxel daily 5 days
Description: 3 test articles were evaluated during the study.
Standard deviation values are listed in parenthesis.

GcSTn-PAA ELISA = format: binding; conditions: 200 ng/well PAA antigen; 1:5 dilutions from 1 μM
Description: (§1) Anti-STn serum titer is determined using a murine anti-STn bovine submaxillary mucin (BSM) ELISA together with serum profiles observed by glycan microarray. 96-well plates are coated with 1 μg/well of BSM and incubated overnight at 4° C. O-acetylation of BSM antigen is removed by treating wells with 0.1 M sodium hydroxide. Specific binding to STn is determined by treatment of wells with sodium periodate. Periodate treatment destroys the C6 side chain of sialic acid; therefore antibodies raised against STn should not bind to periodate-treated wells. Wells are blocked with PBS 1% ovalbumin (OVA). Serum samples to be assayed are serially diluted in PBS 1% OVA. […] Detection of anti-STn antibodies present in serum is determined using an HRP-conjugated polyclonal goat anti-mouse IgG antibody (Jackson Immunoresearch, West Grove, Pa.). […] Optical densities are measured at 490 nm using a Spectramax microplate reader (Molecular Devices, Sunnyvale, Calif.). The serum titer is obtained by comparison of OD values with a cutoff value calculated as two standard deviations above the mean of optical density values of the negative control. […]
(§2) 18D2 and 18C7 antibodies were further characterized by ELISA comprising antigens other than BSM. […] Binding of anti-STn antibodies was detected using a goat anti-mouse IgG-HRP conjugated antibody (Jackson Immunoresearch Laboratories, West Grove, Pa.). […]

AcSTn-PAA ELISA = format: binding; conditions: 200 ng/well PAA antigen; 1:5 dilutions from 1 μM
Description: as §1, §2

[1] = test system: STn on bovine submaxillary mucin (BSM); assay: Anti-STn BSM ELISA; format: binding; conditions: BSM ELISA, sodium periodate treated wells
Description: Anti-STn serum titer is determined using a murine anti-STn bovine submaxillary mucin (BSM) ELISA together with serum profiles observed by glycan microarray. 96-well plates are coated with 1 μg/well of BSM and incubated overnight at 4° C. O-acetylation of BSM antigen is removed by treating wells with 0.1 M sodium hydroxide. Specific binding to STn is determined by treatment of wells with sodium periodate. Periodate treatment destroys the C6 side chain of sialic acid; therefore antibodies raised against STn should not bind to periodate-treated wells. Wells are blocked with PBS 1% ovalbumin (OVA). Serum samples to be assayed are serially diluted in PBS 1% OVA. A commercially available mouse anti-STn monoclonal antibody, 3F1 (SBH Sciences, Natick, Mass.) is used as a positive control. This antibody is also serially diluted in PBS with 1% OVA. A pool of serum from naïve wild type mice is used for the preparation of negative control samples. Detection of anti-STn antibodies present in serum is determined using an HRP-conjugated polyclonal goat anti-mouse IgG antibody (Jackson Immunoresearch, West Grove, Pa.). The reaction is stopped by addition of sulfuric acid (1.6 M). Optical densities are measured at 490 nm using a Spectramax microplate reader (Molecular Devices, Sunnyvale, Calif.). The serum titer is obtained by comparison of OD values with a cutoff value calculated as two standard deviations above the mean of optical density values of the negative control. […]
Binding affinities of 18D2 and 18C7 to STn were compared to commercially available anti-STn antibodies using the BSM ELISA assay described in Example 2. […] Antibody binding was determined using HRP-conjugated polyclonal goat anti-mouse IgG antibody (Jackson Immunoresearch Laboratories, West Grove, Pa.). […] Optical densities were measured at 490 nm using a Spectramax microplate reader. […] The half maximal effective concentration (EC50) for each antibody was calculated using a non-linear regression analysis carried out on periodate subtracted data.

[2] = Glycan array STn specificity and anti-STn antibody group; format: binding; set-up: key to Group: Group 1 antibodies according to the invention are antibodies capable of binding AcSTn and GcSTn; Antibodies were assigned to Group 2 based on their ability to bind STn as well as some related structures that include an O-linkage to serine or threonine; Group 3 antibodies are antibodies capable of binding STn, but may also bind a broader set of related structures; Group 4 antibodies are capable of binding to both AcSTn and GcSTn as well as the un-sialylated Tn antigen; conditions: assigned from flow cytometry and glycan array analysis
Description: Optimized glycan arrays comprise 71 chemically synthesized and well-defined glycans, most of which comprise Neu5Ac and Neu5Gc glycan pairs.
300 ml of epoxy blocking buffer is prepared by combining 15 ml of 2 M Tris buffer (pH 8) with 0.9 ml of 16.6 M ethanolamine and 284.1 ml of distilled water. The solution is filtered using a […] nitrocellulose membrane. The epoxy buffer solution as well as 1 L of distilled water are pre-warmed to 50° C. Glass slides are arranged in a slide holder and quickly submerged in a staining tub with the warmed epoxy blocking buffer. Slides are incubated in the epoxy blocking buffer for 1 hour at 50° C. with periodic shaking to deactivate epoxy binding sites. Next, slides are rinsed and blocked with PBS with 1% OVA at 25° C. for one hour. Serum samples are diluted 1:1000 in PBS with 1% OVA and added to the glycan array for one hour at 25° C. After extensive washing, binding of polyclonal serum antibodies are detected by incubating glycan microarray slides with Cy3-conjugated anti-mouse IgG (Jackson Immunoresearch, West Grove, Pa.) for one hour. Slides are then washed extensively, dried and scanned with a Genepix 4000B scanner (Laser at 100%; gain at 350; 10 μm pixels). Raw data from scanned images are extracted using the Genepix software and analysis of raw data is carried out.
Based on characterization data, anti-STn antibodies developed from Group 6 and Group 8 mice were categorized by anti-STn group number. In some cases, antibodies were assigned to Group 1. Group 1 antibodies according to the invention are antibodies capable of binding AcSTn and GcSTn. Such antibodies may have the ability to associate with a wider range of STn structures. The large oval in FIG. 1A indicates the portion of STn recognized by Group 1 antibodies. […] Also listed in the Table is the antibody Isotype for each antibody as determined by the IsoStrip mouse monoclonal antibody isotyping kit (Roche Diagnostics GmbH, Manheim, Germany).

**Q.** Which results are given for `CC(=O)O[C@H]1C(=O)[C@@]2(C)[C@H]([C@H](OC(=O)c3ccccc3)[C@]3(O)C[C@H](OC(=O)[C@H](O)[C@@H](NC(=O)c4ccccc4)c4ccccc4)C(C)=C1C3(C)C)[C@]1(OC(C)=O)CO[C@@H]1C[C@@H]2O` [Paclitaxel, reference compound]?
**A.** Average Tumor Volume (E3-STn cells; day 1 of treatment): 112.7 mm^3; Average Tumor Volume (E3-STn cells; day 4 of treatment): 179.5 mm^3; Average Tumor Volume (E3-STn cells; day 6 of treatment): 191.4 mm^3; Average Tumor Volume (E3-STn cells; day 8 of treatment): 198.6 mm^3; Average Tumor Volume (E3-STn cells; day 11 of treatment): 199.8 mm^3; Average Tumor Volume (E3-STn cells; day 13 of treatment): 227.0 mm^3; Average Tumor Volume (E3-STn cells; day 15 of treatment): 248.4 mm^3; Average Tumor Volume (E3-STn cells; day 18 of treatment): 290.5 mm^3; Average Tumor Volume (E3-STn cells; day 20 of treatment): 328.2 mm^3; Average Tumor Volume (E3-STn cells; day 22): 331.8 mm^3; Average Tumor Volume (E3-STn cells; day 26): 344.0 mm^3; Average Tumor Volume (E3-STn cells; day 27): 350.1 mm^3; Average Tumor Volume (E3-STn cells; day 29): 352.3 mm^3; Average Tumor Volume (E3-STn cells; day 32): 355.1 mm^3; Average Tumor Volume (E3-STn cells; day 34): 358.4 mm^3; Average Tumor Volume (E3-STn cells; day 36): 282.0 mm^3; Average Tumor Volume (E3-STn cells; day 39): 267.2 mm^3; Average Tumor Volume (E3-STn cells; day 41): 276.4 mm^3

B1: B72.3: commercial anti-STn antibody, TAG-72 clone B72.3 (Thermo Fisher Scientific) (antibody, chains of the INN, looked up, V domains shown)
VH: QVQLQQSDAELVKPGASVKISCKASGYTFTDHAIHWAKQKPEQGLEWIGYISPGNDDIKYNEKFKGKATLTADKSSSTAYMQLNSLTSEDSAVYFCKRSYYGHWGQGTTLTVSS
VL: DIQMTQSPASLSVSVGETVTITCRASENIYSNLAWYQQKQGKSPQLLVYAATNLADGVPSRFSGSGSGTQYSLKINSLQSEDFGSYYCQHFWGTPYTFGGGTRLEIK
**Q.** With B1 as the molecule, how does the EC50 (GcSTn-PAA ELISA) read?
**A.** Its EC50 is 27.8 nM.

**Q.** What about the EC50 (AcSTn-PAA ELISA) of the same molecule?
**A.** Its EC50 is 71.3 nM.

B2: 18C7: anti-STn monoclonal antibody from mouse #4436; IgG2c κ; SEQ ID NO 4 and 5 (antibody, V domains shown)
VH: QVTLKESGPGILQPSQTLSLTCSFSGFSLSTFGMGVGWIRQPSGKGLEWLAHIWWDDDKYYNPALKSRLTISKDTSKNQVFLKIANVDTADTATYYCARIAYYYGSERDYWGQGTTLTVSS
VL: QIVLTQSPAIMSASPGEKVTMTCSASSSISYMHWYHQKPGTSPKRWIYDTSKLASGVPARFSGSGSGTSYSLTISSMEAEDAATYYCHQRSSYTFGGGTKLEIKR
**Q.** Which “binding to periodate-treated wells” value [1] does the source give for B2 here?
**A.** Its value is “did not bind”.

**Q.** And the Group [2]?
**A.** The Group was 1.
